Results on 1 compound are retold here after patent US20080032324A1, “Apparatus and method for cell migration assays” (The Trustees Of Tufts College, priority 2004, published 2008).

“Also recorded” adds a separate entry of the source.

Type in all cases: cell-based, mouse
Data set [1] concerns NIH/3T3 fibroblasts. Kind of data set: Cell viability, ethidium homodimer-1 dead assay after the experiment. To be noted: ethidium homodimer dead assay after each experiment. An excerpt: The dead assay was taken from a Live/Dead Viability/Cytotoxicity kit from Molecular Probes. DiO and EthD show virtually no overlap in excitation/emission wavelengths, being 484/501 nm and 528/617 nm, respectively.

The test system of data set [2] is NIH/3T3 fibroblasts. The experiment in a line: Fiber bundle whole-cell migration assay (residence time, 25 μm fibers). The conditions noted are these: ten minutes per frame, average of 30 fibers, ten hours, control 4.3±2.9 frames. The procedure: (§1) After labeling, the cells were allowed to settle and adhere to a fibronectin-coated fiber bundle that had been secured to a delta T4 dish (FIG. 1A). Fibers were placed into the delta T4 dish to maintain the temperature at 37° C. during experiments. […] After cells were allowed to adhere to the bundle's distal end, it was mounted on an inverted microscope stage, and excitation light was introduced through the proximal end of the fiber bundle. The fiber bundle is not connected directly to any part of the microscope, but remains within a centimeter of the objective. The excitation light was transferred through the fiber bundle to the distal end, where it excited the Vibrant DiO dye in the cell membrane (FIG. 1B). The resulting fluorescence emission light was then carried back through the fiber bundle to a CCD camera. […]
(§2) Cell migration was detected using two types of fiber bundles differing in the sizes of the individual fibers. […]
Migration is quantified as an increase in intensity at a particular fiber, as a fluorescently dyed cell moves across that fiber. […]
In this example, a threshold was assigned for each selected fiber at 75% of the maximum peak intensity for that particular fiber. […] The number of frames that the intensity stays above this threshold is counted for each fiber, and then averaged for all 30 fibers, giving an average residence time for the experiment (FIG. 2D). […]

The subject of data set [3] is NIH/3T3 fibroblasts. The experiment in a line: Fiber bundle subcellular imaging assay (residence time, 4.5 μm fibers). The conditions noted are these: 10 seconds per frame, top 30 fibers, 5-minute experiment, control 7.5±7.4 frames. The procedure:
as §1, with “The excitation light was transferred through the fiber bundle to the distal end, where it excited the Vibrant DiO dye in the cell membrane (FIG. 1B).” left out
as §2
The data shown in FIG. 3C originate from an experiment in which three separate fibers were exposed to successively higher concentrations of nocodazole. […] Regions of the cell periphery can be difficult to distinguish from the background, because the fluorescence intensity gradually diminishes at the cell perimeter. […]
Timelapse recording was performed to determine the extent of cell migration or membrane motion across the fiber surface. […] Cell movement was recorded on delta T4 dishes (data not shown), as well as on Schott and Illumina fiber bundles. […] All movement was recorded using a fluorescein filter set. […]

Take `COC(=O)Nc1nc2ccc(C(=O)c3cccs3)cc2[nH]1` [nocodazole, Nocodazole]: the “cell viability after nocodazole treatment” value in the data set with NIH/3T3 fibroblasts [1] was “all cells were alive; also recorded: Cells were determined to be alive”. The average residence time in the data set with NIH/3T3 fibroblasts [2] (200 nM nocodazole) came to 18.8±10.3 frames; in the data set with NIH/3T3 fibroblasts [2] (300 nM nocodazole) it was 24.6±18.6 frames; in the data set on NIH/3T3 fibroblasts [3] (200 nM nocodazole), 13.2±8.0 frames; in the data set with NIH/3T3 fibroblasts [3] (300 nM nocodazole) it was 19.0±9.4 frames.
